Here are results for one compound from paper PMC5642494 (Oncotarget, 2017).

One test concerns ZR-75-1 xenograft. The experiment in a line: ZR-75-1 xenograft efficacy in NOD SCID mice. The class given is in vivo, mouse. The protocol:
Control animals were treated with vehicle (1% HEC/ 25 mM phosphate buffer, pH = 2) using the same schedule of dosing. The red bar just above the X-axis illustrates the duration of the treatment period. Tumor volume measurements were taken routinely during the course of the study and are plotted as mean +/- SEM versus days following tumor cell implantation. (B) Body weights were recorded routinely during the course of the study and are plotted as mean % change (+/– SEM) relative to the mean body weight recorded on the day just prior to the first day of dosing (baseline day = 27). (C) The waterfall plots indicate the relative tumor volumes for individual animals which were determined at the end of the dosing period (study day 55). […] Growth inhibition is observed in those instances where the calculated changes in %DT/C are less than 100% whereby greater inhibition results in smaller %DT/C values. Change in %DT/C values that are less than zero indicate regressions whereby the tumor volumes on day 55 are smaller than the baseline tumor volume measured on the day prior to the initiation of dosing (baseline day = day 27). […] The tumor volumes measured on day 27 served as the baseline volumes for the calculation of %DT/C. […] Potential CDK9 inhibition was assessed by measuring the expression of MCL1 or phosphorylation of serine 2 on the C-terminal domain repeat on RNA polymerase II (pCTD). […]

The test system of the next test is ZR-75-1 xenograft tumors. The experiment in a line: mRNA expression of cell cycle regulatory genes in ZR-75-1 xenograft tumors. Particulars: 50 or 75 mg/kg QDx5; Cyclin E, MCM7, CDKN2C, PTEN, AURA, CCNB1, FOXM1, RRM2, MKI67, Topo IIα. The class given is in vivo, mouse. The protocol:
page 4: or pHH3 facilitates quantification of the inhibition of #79654). The suspension was placed on the Qiashredder cell cycle progression since lower expression of these 2 columns (Qiagen #79654) and RNA was purified by biomarkers quantitatively correlates with the extent of following the protocol for the RNAeasy Mini Kit (Qiagen progression of cells through either S-phase (Topo IIα) or # 74104). Following the last wash, the purified RNA was M-phase (pHH3). The inhibition of CDK9 was assessed eluted using […] RNase-free water and collected in by measuring the inhibition of either MCL1 expression labeled DNase/RNase-free collection tubes. The quantity or phosphorylation of […] on the C-terminal domain of RNA was measured by spectral analysis using the repeat on RNA polymerase II (pCTD). The visualization Nanodrop Spectrophotometer (NanoDrop Products, of the signals corresponding to these biomarkers was Wilmington, DE, USA) and then placed in -80 degree […] achieved through development with the ECL SuperSignal freezer for analysis. The cDNA preparation was completed chemo-luminescence kit (Pierce) and image capture using as described in the included kit protocol using Superscript the Fuji LAS400 image capture instrument. […] Isolation and purification of RNA from tumors All samples, once quantitated, were delivered to […] […]

The test system of another test is MCF7 cells. The experiment in a line: Multiplexed cell number, β-gal and TUNEL in MCF7. The class given is cell-based, human. Particulars: 0.125 µM or 0.5 µM, 1-5 DT. The protocol:
The viable cell number was determined by PI staining, the % of β-gal positive cells was determined using an antibody to β-gal, and the % of Tunel positive cells was determined by the incorporation of labelled dUTP. The data are plotted as the mean (+/- SD) of 2 experiments for CDK4 and CDK6 inhibitor treatment, and the mean of 6 experiments (+/- SD) for untreated samples. The duration of treatment is plotted along the x-axis in doubling times (DT) for MCF7 cells.
After treatment, cells were fixed, washed with PBS, permeabilized and β-gal was detected using anti-β-galactosidase antibody; for multiplexed assays, TUNEL staining was carried out using Roche TUNEL reagents as indicated above. Nuclei were also stained with PI for total cell counting. Plates were read in an Acumen Explorer Ex3 (TTP Labtech) and raw data were analyzed with Cellista software. Outputs were expressed as percentages of each identified subpopulation 1) positive β-gal, and 2) total cell number. The percentages of β-gal positive cells, TUNEL positive cells, and cell numbers were plotted in Microsoft Excel.

The structures appear in SMILES notation.

Consider `CCN1CCN(Cc2ccc(Nc3ncc(F)c(-c4cc(F)c5nc(C)n(C(C)C)c5c4)n3)nc2)CC1` [abemaciclib, Abemaciclib], for which the tumor volume entry in the test on ZR-75-1 xenograft (75 mg/kg PO QDx28, NOD SCID mice, ZR-75-1 xenograft) is “measured reduction in tumor volume (regression)”. The anti-tumor activity result in the test with ZR-75-1 xenograft (50 or 75 mg/kg PO QDx28, single agent) is listed as “Dose-dependent anti-tumor activity”. Besides, the “mRNA expression of cell cycle genes in tumors” value in the test with ZR-75-1 xenograft tumors was “suppression of the expression of several genes”. In the test with MCF7 cells, the TUNEL staining result is “increase in TUNEL staining was observed by 2DT”.
